Reference: patent publication US20100285959A1, “HERBICIDAL MIXTURES” (priority 2006, published 2010)

What was measured:
[1] = test system: rice (ORYSA); assay: Test 32 greenhouse, simulated flooded rice culture; assay type: in vivo, Oryza sativa; conditions: postemergence to flood, 21 DAA
Description: A greenhouse trial was conducted to evaluate the effects of Compound 1 and isoxadifen-ethyl at different ratios in simulated flooded rice culture. Plastic pots (11-cm diameter) were partially filled with non-sterilized Tama silt loam soil containing a 15:57:28 ratio of sand, silt and clay and 2.9% organic matter. Seeds of Heteranthera limosa (ducksalad; HETLI), Cyperus difformis (smallflower umbrella sedge; CYPDI), one stand of Echinochloa crus-galli (barnyardgrass; ECHCG), and one stand of four rice seedlings (Oryza sativa cv. ‘M202’; ORYSA) were planted into a single 11-cm diameter pot for each rate and mixture of rates. To obtain this planting, C. difformis and H. limosa seeds were planted separately on the surface soil layer at particular locations within each pot. Water levels were brought to a puddled condition above the soil surface directly after planting. E. crus-galli and rice seeds were planted in cavity trays in the silt loam soil and transplanted at the 1.5 and 2.0 leaf stage, respectively. E. crus-galli and rice plants were transplanted to about 2-cm depth by transferring plugs from the cavity trays. Plantings were sequential so that these plant species all reached the 2.0- to 2.5-leaf stage in the 11-cm diameter pot at time of treatment. Plantings were established and maintained in a greenhouse with day and night temperatures of about 29.5 and 26.7° C. respectively; supplemental balanced lighting was provided to maintain a 16-hour photoperiod. Pots were fertilized periodically with a 200 ppm solution of commercial Scotts Peters® Professional® General Purpose 20-20-20 Water Soluble Fertilizer, amended to 10 ppm with a commercial iron-chelate micronutrient fertilizer. The solution was supplied at time of watering via a liquid fertilizer injector.
At treatment time, test pots were flooded to 3 cm above the soil surface and maintained at that water depth for the duration of the test. Chemical treatments were formulated in acetone and applied directly to the paddy water (i.e., postemergence to flood). Make-up volumes of acetone were added to ensure that all pots were treated with a consistent volume. Test pots were maintained in the greenhouse. A randomized complete block design was employed. Five replicates of each treatment, alone and in mixture, were used. Each species was visually evaluated for treatment effects by comparing those treated to untreated controls and rated for plant response after 21 days.

[2] = test system: common ragweed (AMBEL); assay: Test 25 field trial, postemergence, growth as percent of control; assay type: in vivo, Ambrosia artemisiifolia
Description: (§1) Corn seeds (hybrid ‘Pioneer 31G96 RR’) were planted in mid spring season, 3.8 cm deep in a clay loam soil having 2% organic matter and a pH of 6.6. Plots were 6.1 m long by 3.0 m wide with rows spaced 76 cm apart. Seeds were spaced 15 cm apart within the rows. The field was managed using conventional tillage practices. […] Giant ragweed and Pennsylvania smartweed could only be evaluated 14 days after application. […] Results are the means of the three replicates. This growth inhibition data was converted to results in the form of “plant growth as a percent of control plant growth” using the calculation “100 minus growth inhibition”.
(§2) When this form of Colby's Equation is used, if the observed effects on weeds are less than the expected values, the mixture is synergistic.

[3] = test system: Russian thistle (SASKR); assay: Test 24 growth chamber, postemergence; assay type: in vivo, Salsola kali; conditions: 17 DAA
Description: (§3) Plants were treated postemergence at the 2-4 leaf growth stage, and each treatment was replicated three times. […] Plants were watered as needed. […] Results for barley and wheat are the means across varieties of the three replicates, and results for the weeds are the means of the three replicates.

[4] = test system: common lambsquarters (CHEAL); assay: Test 25 field trial, postemergence, growth as percent of control; assay type: in vivo, Chenopodium album
Description: as §1, §2

[5] = test system: wild buckwheat (POLCO); assay: Test 4 field trial, postemergence; assay type: in vivo, Polygonum convolvulus
Description: A field trial was conducted to evaluate the effects of mixtures of Compound 2 with commercial herbicides on spring wheat (TRZAS, Triticum aestivum L.) and several weed species. Wheat seeds (cv. ‘AC Intrepid’) were planted in late spring season, 3.8 cm deep in a loam soil having 2.7% organic matter and a pH of 7. Plots were 6 m long by 2.5 m wide. The field was managed using no-till practices. The plots were arranged in a randomized complete block design with each treatment being replicated four times. Treatments were applied postemergence 25 days after planting using a backpack sprayer delivering a spray volume of 55 L/ha using a pressure of 276 kPa. […] Compound 2 and clodinafop treatments, alone and in combination, also included a surfactant. Weed species present in the experimental plots in sufficient quantity to be evaluated included wild oat (AVEFA, Avena fatua L.), common lambsquarters (CHEAL, Chenopodium album L.), kochia (KCHSC, Kochia scoparia (L.) Schrad.), wild buckwheat (POLCO, Polygonum convolvulus L.), Russian thistle (SASKR, Salsola kali L. ssp. ruthenica (Iljin) Soo), and field pennycress (THLAR, Thlaspi arvense L.). […] Common lambsquarters was evaluated only at 14 days after application. […] Results are the means of the four replicates.

[6] = test system: velvetleaf (ABUTH); assay: Test 18 greenhouse, post- and preemergence; conditions: 15 DAA
[7] = test system: field violet (VIOAR); assay: Test 24 growth chamber, postemergence; assay type: in vivo, Viola arvensis; conditions: 17 DAA
Description: as §3

Nc1nc(C2CC2)nc(C(=O)O)c1Cl [Compound 1, 6-amino-5-chloro-2-cyclopropyl-4-pyrimidinecarboxylic acid]
ORYSA Obs ([1]; Cpd 1 31.25 g a.i./ha): 9% | ORYSA Obs ([1]; Cpd 1 62.5 g a.i./ha): 15% | ORYSA Obs ([1]; Cpd 1 125 g a.i./ha): 27%

COC(=O)c1nc(C2CC2)nc(N)c1Cl [Compound 2, methyl 6-amino-5-chloro-2-cyclopropyl-4-pyrimidinecarboxylate]
AMBEL Obs (percent of control) ([2]; Cpd 2 15 g a.i./ha, 14 DAA): 20% | AMBEL Obs (percent of control) ([2]; Cpd 2 15 g a.i./ha, 28 DAA): 16% | AMBEL Obs (percent of control) ([2]; Cpd 2 15 g a.i./ha, 56 DAA): 0% | AMBEL Obs (percent of control) ([2]; Cpd 2 30 g a.i./ha, 14 DAA): 22% | AMBEL Obs (percent of control) ([2]; Cpd 2 30 g a.i./ha, 28 DAA): 12% | AMBEL Obs (percent of control) ([2]; Cpd 2 30 g a.i./ha, 56 DAA): 0% | AMBEL Obs (percent of control) ([2]; Cpd 2 45 g a.i./ha, 14 DAA): 12% | AMBEL Obs (percent of control) ([2]; Cpd 2 45 g a.i./ha, 28 DAA): 8% | AMBEL Obs (percent of control) ([2]; Cpd 2 45 g a.i./ha, 56 DAA): 0% | SASKR Obs (scale 0 to 100) ([3]; Cpd 2 4 g a.i./ha): 63 | SASKR Obs (scale 0 to 100) ([3]; Cpd 2 8 g a.i./ha): 75 | SASKR Obs (scale 0 to 100) ([3]; Cpd 2 16 g a.i./ha): 75 | CHEAL Obs (percent of control) ([4]; Cpd 2 15 g a.i./ha, 14 DAA): 15% | CHEAL Obs (percent of control) ([4]; Cpd 2 15 g a.i./ha, 28 DAA): 2% | CHEAL Obs (percent of control) ([4]; Cpd 2 15 g a.i./ha, 56 DAA): 0% | CHEAL Obs (percent of control) ([4]; Cpd 2 30 g a.i./ha, 14 DAA): 20% | CHEAL Obs (percent of control) ([4]; Cpd 2 30 g a.i./ha, 28 DAA): 1% | CHEAL Obs (percent of control) ([4]; Cpd 2 30 g a.i./ha, 56 DAA): 0% | CHEAL Obs (percent of control) ([4]; Cpd 2 45 g a.i./ha, 14 DAA): 7% | CHEAL Obs (percent of control) ([4]; Cpd 2 45 g a.i./ha, 28 DAA): 0% | CHEAL Obs (percent of control) ([4]; Cpd 2 45 g a.i./ha, 56 DAA): 0% | POLCO Obs ([5]; 14 DAA, Cpd 2 30 g a.i./ha alone or with clodinafop 56 or fenoxaprop 90): 61 | POLCO Obs ([5]; 14 DAA, Cpd 2 60 g a.i./ha alone or with clodinafop 56 or fenoxaprop 90): 63 | POLCO Obs ([5]; 35 DAA, Cpd 2 30 g a.i./ha alone or with clodinafop 56 or fenoxaprop 90): 51 | POLCO Obs ([5]; 35 DAA, Cpd 2 60 g a.i./ha alone or with clodinafop 56 or fenoxaprop 90): 55 | Postemergence ABUTH Obs ([6]; alone at 15 g a.i./ha): 39 | Preemergence ABUTH Obs ([6]; alone at 15 g a.i./ha): 16 | Postemergence ABUTH Obs ([6]; alone at 30 g a.i./ha): 58 | Preemergence ABUTH Obs ([6]; alone at 30 g a.i./ha): 26 | Postemergence ABUTH Obs ([6]; alone at 45 g a.i./ha): 67 | Preemergence ABUTH Obs ([6]; alone at 45 g a.i./ha): 28 | VIOAR Obs (scale 0 to 100) ([7]; Cpd 2 4 g a.i./ha): 47 | VIOAR Obs (scale 0 to 100) ([7]; Cpd 2 8 g a.i./ha): 62 | VIOAR Obs (scale 0 to 100) ([7]; Cpd 2 16 g a.i./ha): 72
